In patent publication USRE39192E1, “Supplemented and unsupplemented tissue sealants, methods of their production and use” (American National Red Cross, priority 1990, dated 2006):

Tested on: human dermal fibroblasts (HDFs)
Experiment: Cell chemotaxis assay (modified Boyden's chamber), human dermal fibroblasts
Format: cell-based
Text: NIH/3T3 fibroblasts at passage 126 were purchased from the American Type Culture Collection, Rockville, Md. Cultures from passages 129-133 were used in the chemotaxis assays. Cultures were propagated in DMEM supplemented with 10%. Calf serum and approximately 1% antibiotic antimycotic solution. Human dermal fibroblasts (HDFs) were purchased from Clonetics, Inc. (San Diego, Calif.) at passage 2. Cultures from passages 3-5 were used in the chemotaxis assays. Cultures were cultivated in DMEM supplemented with 20% FBS (Hyclone Laboratories, Inc., Logan, Utah) and approximately 1% antibiotic antimycotic solution (Gibco, Grand Island, N.Y.).
The procedure used to determine cellular chemotaxis was a combination of two known methodologies. A modification of Boyden's chamber was used as follows: Millicell-PCF (Millipore, Inc., Bedford, Mass.) (12.0 μm) 12.0 mm diameter inserts were placed in individual wells of 24 well plates to create the upper and lower chemotaxis chambers. Chemotaxis results were arrived at by performing checkerboard analysis for every combination of cells and growth factors. Concentrations ranging from 0.1, 1, 10, 100 ng/ml with/without added heparin (10 U/ml) were used for FGF-1, FGF-2 (no heparin) and FGF-4 with all the cell types mentioned in the materials section. Briefly, cultures were trypsanized and placed in DMEM+0.1% Bovine Serum Albumin (BSA) (Sigma Chemical Co., St. Louis, Mo.) for approximately one hour at 37° C. in a 5% CO2 humidified chamber. Tow to 2.5×10^5 cells in 50 μl were added per insert to the upper chamber of the setup of the 24 well plates. Treatments were added as mentioned above. The assay was kept at 37° C. in a 5% CO2 humidified chamber for 4 hours. All combinations tested were performed in triplicate. At the end of 4 hours, the plates were removed from the incubator and the filters were stained following the protocol for staining included with the Millicell-PCT inserts. Briefly, the fluid surrounding the inside and outside of the Millicell-PCF inserts were removed. Three percent glutaraldehyde (Sigma Chemical Co., St. Louis, Mo.) was added to the outside and inside of the inserts for approximately 20 minutes. Following removal of the 3.0% glutaraldehyde, 0.5% Triton X-100 (E.M. Science, Cherry Hill, N.J.) was added for 5-7 minutes. On removal of the 0.5% Triton X-100, Fisher's Hematoxylin Solution Gill's Formulation (Fisher Scientific, Newark, Del.) No.1 was added for about 10 minutes. This solution was washed off in running distilled water for about 5 minutes. Using a cotton swab the upper side of the filter was swabbed to remove cells which had not migrated. Filters, were mounted lower side facing up on slides in Crystal Mount™ (Biomedia, Inc., Foster City, Calif.) solution and 10 random field were counted per slide both visually at 400× and at 200×using an Image Analyzing System to automate the enumeration of the cells on the underside of the filters.
As required, checkerboard analysis was carried out to determine random migration, and positive and negative chemotaxis. Growth factors were added to the upper and/or lower chambers to observe whether cells migrated towards the GF alone (chemotaxis), whether migration was random irrespective of whether the growth factor was added to the upper or lower well (chemokinesis) or whether cell migration was against the chemotactic gradient (negative chemotaxis).

HBGF-1: heparin binding growth factor-1, also known as ECGF and FGF-1; recombinant HBGF-1β expressed in E. coli
checkerboard analysis: chemotactic | maximal migratory response over negative control: 18 fold | migrated cells (checkerboard analysis) (lower 0 ng/ml, upper 0.1 ng/ml): 48. +/− 1.965 | migrated cells (checkerboard analysis) (lower 0 ng/ml, upper 1 ng/ml): 1.3 +/− 0.351 | migrated cells (checkerboard analysis) (lower 0 ng/ml, upper 10 ng/ml): 4.6 +/− 2.424 | migrated cells (checkerboard analysis) (lower 0 ng/ml, upper 100 ng/ml): 2.4 +/− 2.59 | migrated cells (checkerboard analysis) (lower 0.1 ng/ml, upper 0 ng/ml): 66.46 +/− 3.304 | migrated cells (checkerboard analysis) (lower 0.1 ng/ml, upper 0.1 ng/ml): 3.5 +/− 1.550 | migrated cells (checkerboard analysis) (lower 0.1 ng/ml, upper 1 ng/ml): 22.0 +/− 6.621 | migrated cells (checkerboard analysis) (lower 0.1 ng/ml, upper 10 ng/ml): 9.7 +/− 7.758 | migrated cells (checkerboard analysis) (lower 0.1 ng/ml, upper 100 ng/ml): 11.6 +/− 8.609 | migrated cells (checkerboard analysis) (lower 1 ng/ml, upper 0 ng/ml): 90.0 +/− 5.776 | migrated cells (checkerboard analysis) (lower 1 ng/ml, upper 0.1 ng/ml): 27.7 +/− 8.10 | migrated cells (checkerboard analysis) (lower 1 ng/ml, upper 1 ng/ml): 52.6 +/− 2.775 | migrated cells (checkerboard analysis) (lower 1 ng/ml, upper 10 ng/ml): 9.7 +/− 3.553 | migrated cells (checkerboard analysis) (lower 1 ng/ml, upper 100 ng/ml): 1.83 +/− 2.2 | migrated cells (checkerboard analysis) (lower 10 ng/ml, upper 0 ng/ml): 92.4 +/− 29.307 | migrated cells (checkerboard analysis) (lower 10 ng/ml, upper 0.1 ng/ml): 55.1 +/− 7.151 | migrated cells (checkerboard analysis) (lower 10 ng/ml, upper 1 ng/ml): 44.2 +/− 11.844 | migrated cells (checkerboard analysis) (lower 10 ng/ml, upper 10 ng/ml): 16.2 +/− 4.781 | migrated cells (checkerboard analysis) (lower 10 ng/ml, upper 100 ng/ml): 21.2 +/− 6.42 | migrated cells (checkerboard analysis) (lower 100 ng/ml, upper 0 ng/ml): 65.4 +/− 22.055 | migrated cells (checkerboard analysis) (lower 100 ng/ml, upper 0.1 ng/ml): 53.7 +/− 7.3118 | migrated cells (checkerboard analysis) (lower 100 ng/ml, upper 1 ng/ml): 54.9 +/− 18.599 | migrated cells (checkerboard analysis) (lower 100 ng/ml, upper 10 ng/ml): 49.166 +/− 9.152 | migrated cells (checkerboard analysis) (lower 100 ng/ml, upper 100 ng/ml): 4.66 +/− 3.3
